# Laboratory results from PMC6620010, “Purification and characterization of Terfezia claveryi TcCAT-1, a desert truffle catalase upregulated in mycorrhizal symbiosis” (PLoS ONE, 2019).
# Tested on: T1, TcCAT-1
# T1 construct: native, purified from wild ascocarps (Zarzadilla de Totana, Lorca, Murcia, Spain); large-subunit monofunctional heme catalase, Clade 2, L2 group
# Assay: H2O2 decomposition at […] nm
# Type: biochemical, Terfezia claveryi
# Conditions: 10 mM H2O2, 0.1 M sodium phosphate pH 7.0, room temperature
IC50 (text b58 prints 0.125 mM),Structure (SMILES),IC50
130 ± 20 µM,OCCS [2-mercaptoethanol],
,NO [hydroxylamine],0.1 ± 0.01 µM
